Results as given in PubChem BioAssay AID1963842 (Molecular Pharmacology Branch, DTP, NCI, 2024).
Where “and” joins values, the source holds several entries; their conditions need not be identical. Equal entries are not always repeated.

System: 677734-321-R-J1-PDC complex spheroid viability
Experiment: Anticancer human tumor 677734-321-R-J1-PDC patient-derived soft tissue sarcoma cell line growth inhibition [POLQ]
Conditions: for viability, T/C: stronger effect = lower value
Protocol: Multicellular complex tumor spheroid response to Polymerase (POL) inhibitors (novobiocin, ART-558, RP6685) in combination with a variety of drugs and investigational agents in selected tumor cell lines
The POL inhibitors (novobiocin, ART-558, and RP6685) were evaluated both individually and in combination with standard of care and investigational anticancer small molecules within a complex spheroid model of solid tumors. . Complex spheroids include a stromal component modeled by human endothelial cells (HUVEC) and fibroblasts modeled by human mesenchymal stem cells (MSCs). The concentration ranges selected for each drug and investigational agent were based upon clinically achievable concentrations if the clinical Cmax of the agent was known.
Compounds. The drugs and investigational agents: novobiocin (NSC847541), ART-558 (NSC835418), RP-6685 (NSC848927), peposertib (NSC802822), ceralasertib (NSC780249), elimusertib (NSC800525), camonsertib (NSC841442), AZD-1390 (NSC803789), olaparib (NSC753686), talazoparib (NSC767125), rucaparib (NSC756644), sotorasib (NSC818433), MRTX-1133 (NSC836407), SN-38 (NSC673596), topotecan (NSC609699), epotoside (NSC141540), doxorubicin (NSC123127), gemcitabine (NSC613327), 5-fluorouracil (NSC19893), paclitaxel (NSC125973), vemurafenib (NSC761431), MSA-2 (NSC828583), SN-011 (NSC837082), adavosertib (NSC754352), prexasertib (NSC758257), carboplatin (NSC241240) and oxaliplatin (NSC266046), were obtained from the National Cancer Institute (NCI) Developmental Therapeutics Program Chemical Repository (21). The FDA-approved anticancer drug set is available from the Developmental Therapeutics Program at https://dtp.cancer.gov/organization/dscb/obtaining/. […] The stock solutions were prepared in dimethyl sulfoxide (DMSO, Sigma-Aldrich, St. Louis, MO, cat. D2650), except for the platinum compounds which were prepared in saline (Quality Biological, Gaithersburg, MD, cat. 114-055-101), at 800-fold the tested concentration and stored at -70 degrees C prior to their use. All drugs and investigational agents were tested over a range starting from a high concentration at or near the clinical Cmax and decreasing in half-log increments. If the clinical Cmax for an agent had not been determined, the highest concentration tested was 10 microM, except for SN-38, which was tested at a high concentration of 1 microM.
Cell Culture. All cells were maintained in an incubator at 37 degrees C and 5% CO2 with 95% humidity. The PDC lines were cultured according to standard operating procedures established by the NCI PDMR (https://pdmr.cancer.gov). Table 3 of the manuscript, lists the cell lines along with the number of the three cell types plated to form the mct-spheroids and media for tumor cell growth. After thawing, all PDC lines, except 997537-175-T-J1-PDC and 415267-285-R-J2-PDC, were cultured in Matrigel-coated flasks prepared with a working solution of 1X Ham's F-12 nutrient mix, without supplementation (Thermo Fisher Scientific, cat. 11765054), 100 U/mL penicillin-streptomycin (Thermo Fisher Scientific, cat. 15140122), and 2.5% Matrigel (Corning Inc., Corning, NY, cat. 354248) for the first three passages. The two PDC lines 997537-175-T-J1-PDC and 415267-285-R-J2-PDC were cultured on uncoated flasks. The 857933-349-R-J2-PDC line was cultured in 6C/Colon 1B media containing advanced DMEM/F-12 (Thermo Fisher Scientific, cat. 12634028), 10 mM HEPES (Thermo Fisher Scientific, cat. 15630080), 1X GlutaMAX supplement (Thermo Fisher Scientific, cat. 35050061), 0.1 mg/mL primocin (InvivoGen, San Diego, CA, cat. ant-pm-2), 10% defined fetal bovine serum, heat inactivated (HyClone Laboratories Inc., Logan, UT, cat. SH30070.03HI), 50% L-WRN conditioned media (ATCC, cat. CRL-3276), 1.25 mM N-Acetyl-L-cysteine (Sigma-Aldrich, cat. A9165), 10 mM nicotinamide (Sigma-Aldrich, cat. N0636), 1X B-27 supplement (Thermo Fisher Scientific, cat. 17504044), 1X N-2 supplement (Thermo Fisher Scientific, cat. […]

[1] = curve of first compound, second compound 0.0316 µM
[2] = curve of first compound, second compound 0.1 µM
[3] = curve of first compound, second compound 0.316 µM
[4] = curve of first compound, second compound 1 µM
[5] = curve of first compound, second compound 3.16 µM
[6] = curve of first compound, second compound 10 µM
[7] = second compound 0.0316 µM, first compound 0.0316 µM
[8] = second compound 0.0316 µM, first compound 0.1 µM
[9] = second compound 0.0316 µM, first compound 0.316 µM
[10] = second compound 0.0316 µM, first compound 1 µM
[11] = second compound 0.0316 µM, first compound 3.16 µM
[12] = second compound 0.0316 µM, first compound 10 µM
[13] = second compound 0.1 µM, first compound 0.0316 µM
[14] = second compound 0.1 µM, first compound 0.1 µM
[15] = second compound 0.1 µM, first compound 0.316 µM
[16] = second compound 0.1 µM, first compound 1 µM
[17] = second compound 0.1 µM, first compound 3.16 µM
[18] = second compound 0.1 µM, first compound 10 µM
[19] = second compound 0.316 µM, first compound 0.0316 µM
[20] = second compound 0.316 µM, first compound 0.1 µM
[21] = second compound 0.316 µM, first compound 0.316 µM
[22] = second compound 0.316 µM, first compound 1 µM
[23] = second compound 0.316 µM, first compound 3.16 µM
[24] = second compound 0.316 µM, first compound 10 µM
[25] = second compound 1 µM, first compound 0.0316 µM
[26] = second compound 1 µM, first compound 0.1 µM
[27] = second compound 1 µM, first compound 0.316 µM
[28] = second compound 1 µM, first compound 1 µM
[29] = second compound 1 µM, first compound 3.16 µM
[30] = second compound 1 µM, first compound 10 µM
[31] = second compound 3.16 µM, first compound 0.0316 µM
[32] = second compound 3.16 µM, first compound 0.1 µM
[33] = second compound 3.16 µM, first compound 0.316 µM
[34] = second compound 3.16 µM, first compound 1 µM
[35] = second compound 3.16 µM, first compound 3.16 µM
[36] = second compound 3.16 µM, first compound 10 µM
[37] = second compound 10 µM, first compound 0.0316 µM
[38] = second compound 10 µM, first compound 0.1 µM
[39] = second compound 10 µM, first compound 0.316 µM
[40] = second compound 10 µM, first compound 1 µM
[41] = second compound 10 µM, first compound 3.16 µM
[42] = second compound 10 µM, first compound 10 µM
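Also: spheroids exposed to compounds for one week.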
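For viability, T/C in this document: 100% = vehicle DMSO treated spheroids.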

COc1cc2cc(C(=O)CCC(=O)O)sc2cc1OC + COC1C(OC(N)=O)C(O)C(Oc2ccc3c(O)c(NC(=O)c4ccc(O)c(CC=C(C)C)c4)c(=O)oc3c2C)OC1(C)C
IC50 [1]: > 10 µM
IC50 [2]: > 10 µM
IC50 [3]: > 10 µM
IC50 [4]: > 10 µM
IC50 [5]: > 10 µM
IC50 [6]: > 10 µM
viability, T/C [7]: 104%
viability, T/C [8]: 99.5%
viability, T/C [9]: 103%
viability, T/C [10]: 96.9%
viability, T/C [11]: 105%
viability, T/C [12]: 102%
viability, T/C [13]: 110%
viability, T/C [14]: 99.6%
viability, T/C [15]: 97.5%
viability, T/C [16]: 107%
viability, T/C [17]: 106%
viability, T/C [18]: 102%
viability, T/C [19]: 113%
viability, T/C [20]: 106%
viability, T/C [21]: 98.8%
viability, T/C [22]: 102%
viability, T/C [23]: 111%
viability, T/C [24]: 102%
viability, T/C [25]: 109%
viability, T/C [26]: 102%
viability, T/C [27]: 104%
viability, T/C [28]: 109%
viability, T/C [29]: 105%
viability, T/C [30]: 102%
viability, T/C [31]: 108%
viability, T/C [32]: 104%
viability, T/C [33]: 114%
viability, T/C [34]: 110%
viability, T/C [35]: 109%
viability, T/C [36]: 103%
viability, T/C [37]: 112%
viability, T/C [38]: 101%
viability, T/C [39]: 109%
viability, T/C [40]: 99%
viability, T/C [41]: 111%
viability, T/C [42]: 111%

CC(=O)O[C@H]1C(=O)[C@@]2(C)[C@H]([C@H](OC(=O)c3ccccc3)[C@]3(O)C[C@H](OC(=O)[C@H](O)[C@@H](NC(=O)c4ccccc4)c4ccccc4)C(C)=C1C3(C)C)[C@]1(OC(C)=O)CO[C@@H]1C[C@@H]2O
viability, T/C (compound 0.00949 µM): 22% and 35.2% and 37.8%
viability, T/C (compound 0.03 µM): 13.4% and 15.2% and 19.2%
viability, T/C (compound 0.0949 µM): 12.7% and 15.9% and 17.6%
viability, T/C (compound 0.3 µM): 11.9% and 12.5% and 14.8%
viability, T/C (compound 0.949 µM): 14.2% and 12.4% and 14.5%
viability, T/C (compound 3 µM): 13.1% and 16.4% (2×)
IC50 (curve of compound): < 0.00949 µM

COc1cc2cc(C(=O)CCC(=O)O)sc2cc1OC + Cc1cccc(N(C)C(=O)C2C(O)CCN2c2nc(C)cc(C(F)(F)F)c2C#N)c1
IC50 [1]: > 10 µM
IC50 [2]: > 10 µM
IC50 [3]: > 10 µM
IC50 [4]: > 10 µM
IC50 [5]: > 10 µM
IC50 [6]: > 10 µM
viability, T/C [7]: 104%
viability, T/C [8]: 87.6%
viability, T/C [9]: 97.2%
viability, T/C [10]: 101%
viability, T/C [11]: 110%
viability, T/C [12]: 92.4%
viability, T/C [13]: 92.8%
viability, T/C [14]: 87%
viability, T/C [15]: 92%
viability, T/C [16]: 107%
viability, T/C [17]: 103%
viability, T/C [18]: 86%
viability, T/C [19]: 115%
viability, T/C [20]: 94.8%
viability, T/C [21]: 89.6%
viability, T/C [22]: 87.8%
viability, T/C [23]: 101%
viability, T/C [24]: 74.5%
viability, T/C [25]: 86.4%
viability, T/C [26]: 77.4%
viability, T/C [27]: 89.2%
viability, T/C [28]: 99.7%
viability, T/C [29]: 81.3%
viability, T/C [30]: 70.7%
viability, T/C [31]: 96.2%
viability, T/C [32]: 87.1%
viability, T/C [33]: 84.4%
viability, T/C [34]: 102%
viability, T/C [35]: 83.1%
viability, T/C [36]: 82.3%
viability, T/C [37]: 77.1%
viability, T/C [38]: 91.8%
viability, T/C [39]: 77.4%
viability, T/C [40]: 79.4%
viability, T/C [41]: 88.7%
viability, T/C [42]: 85.8%

COc1ccc([C@@H](O)c2cc(-c3ncnc4cc(N5CCOCC5)ccc34)c(F)cc2Cl)nn1
viability, T/C (compound 0.0316 µM): 107% and 98.4% and 105%
viability, T/C (compound 0.1 µM): 105% and 99.2% and 102%
viability, T/C (compound 0.316 µM): 100% and 104% (2×)
viability, T/C (compound 1 µM): 96.4% and 81.6% and 94.7%
viability, T/C (compound 3.16 µM): 73.8% and 64.6% and 87.4%
viability, T/C (compound 10 µM): 49.8% and 45.3% and 51%
IC50 (curve of compound): 9.83 µM and 7.58 µM and > 10 µM
